Assay results taken from US10195156B2, “Compounds and compositions for intracellular delivery of agents” (ModernaTX, Inc., priority 2015, dated 2019).

Key:
[1] = pKa of nanoparticle compositions; format: physicochemical
[2] = tested on: luciferase (Luc) mRNA expression; experiment: Expression of Luc induced by sample formulations, whole-body bioluminescence after intravenous administration; format: in vivo; settings: mice, i.v., 0.5 mg/kg
Method: In order to monitor how effectively various nanoparticle compositions deliver therapeutic and/or prophylactic agents to targeted cells, different nanoparticle compositions including a particular therapeutic and/or prophylactic agent (for example, a modified or naturally occurring RNA such as an mRNA) are prepared and administered to rodent populations. Mice are intravenously, intramuscularly, intraarterially, or intratumorally administered a single dose including a nanoparticle composition with a formulation such as those provided in Table 1. In some instances, mice may be made to inhale doses. Dose sizes may range from 0.001 mg/kg to 10 mg/kg, where 10 mg/kg describes a dose including 10 mg of a therapeutic and/or prophylactic agent in a nanoparticle composition for each 1 kg of body mass of the mouse. A control composition including PBS may also be employed.
Upon administration of nanoparticle compositions to mice, dose delivery profiles, dose responses, and toxicity of particular formulations and doses thereof can be measured by enzyme-linked immunosorbent assays (ELISA), bioluminescent imaging, or other methods. For nanoparticle compositions including mRNA, time courses of protein expression can also be evaluated. Samples collected from the rodents for evaluation may include blood, sera, and tissue (for example, muscle tissue from the site of an intramuscular injection and internal tissue); sample collection may involve sacrifice of the animals.
The efficacy of the nanoparticle compositions presented in Tables 1, 1a, 17-1, 19-1, 20-1 and 21-1 was evaluated with a bioluminescence study. Formulations were administered intravenously to mice (n=6) at a dosage of 0.5 mg/kg (mpk) and bioluminescence measured at 3, 6, and 24 hour time points. The standard MC3 formulation and a PBS control were evaluated for comparison.

[3] = Encapsulation efficiency of RNA (QUANT-IT RIBOGREEN RNA assay); format: physicochemical; settings: for encapsulation efficiency, rank within the named table (in words): comparison amongst compositions
Method: For nanoparticle compositions including an RNA, a QUANT-IT™ RIBOGREEN® RNA assay (Invitrogen Corporation Carlsbad, Calif.) can be used to evaluate the encapsulation of an RNA by the nanoparticle composition. The samples are diluted to a concentration of approximately 5 μg/mL in a TE buffer solution (10 mM Tris-HCl, 1 mM EDTA, pH 7.5). 50 μL of the diluted samples are transferred to a polystyrene 96 well plate and either 50 μL of TE buffer or 50 μL of a 2% Triton X-100 solution is added to the wells. The plate is incubated at a temperature of 37° C. for 15 minutes. The RIBOGREEN® reagent is diluted 1:100 in TE buffer, and 100 μL of this solution is added to each well. The fluorescence intensity can be measured using a fluorescence plate reader (Wallac Victor 1420 Multilablel Counter; Perkin Elmer, Waltham, Mass.) at an excitation wavelength of, for example, about 480 nm and an emission wavelength of, for example, about 520 nm. The fluorescence values of the reagent blank are subtracted from that of each of the samples and the percentage of free RNA is determined by dividing the fluorescence intensity of the intact sample (without addition of Triton X-100) by the fluorescence value of the disrupted sample (caused by the addition of Triton X-100).

IL-6 = experiment: Cytokine production induced by sample formulations: IL-6; format: in vivo; settings: mice, i.v., 0.5 mpk, 6 hours; for IL-6: in pg/mL (unit assumed)
Description: (§1) The introduction of foreign material into a mammalian body induces an innate immune response that promotes cytokine production. Such immune responses to, for example, nanoparticle compositions including therapeutic and/or prophylactic agents, are undesirable. The induction of certain cytokines is thus measured to evaluate the […] of nanoparticle compositions. The concentrations of various cytokines in mice upon intravenous administration of nanoparticle compositions presented in Tables 1, 1a, 17-1, 19-1, 20-1 and 21-1 at a dosage of 0.5 mpk was measured at 6 hours. The standard MC3 formulation and a PBS control were also tested.

[4] = Particle size and polydispersity index of nanoparticle compositions (Zetasizer Nano ZS); format: physicochemical
Method: A Zetasizer Nano ZS (Malvern Instruments Ltd, Malvern, Worcestershire, UK) can be used to determine the particle size, the polydispersity index (PDI) and the zeta potential of the nanoparticle compositions in 1×PBS in determining particle size and 15 mM PBS in determining zeta potential.

[5] = tested on: modified luciferase expression; experiment: Expression of Luc in different organs (liver, lung, spleen, femur) 6 hours after intravenous administration; format: in vivo; settings: i.v., 0.5 mpk
Method: The efficacy of the nanoparticle compositions presented in Tables 1, 1a, 17-1, 19-1, 20-1 and 21-1 was further evaluated by measuring the expression of modified luciferase in the liver, lung, spleen, and femur upon administration of a given composition. Formulations were administered intravenously to mice (n=3) at a dosage of 0.5 mpk and bioluminescence measured after 6 hours. The standard MC3 formulation and a PBS control were also tested.

IP-10 = experiment: Cytokine production induced by sample formulations: IP-10; format: in vivo; settings: mice, i.v., 0.5 mpk, 6 hours, in pg/mL (unit assumed)
Description: as §1

[6] = Table 20-1, rows without footnote mark
[7] = Table 1, rows without footnote mark
[8] = Table 1, * lipid:DSPC:Chol:PEG-DMG 50:10:38.5:1.5
[9] = Table 1, * formulated with lipid:DSPC:Chol:PEG-DMG 50:10:38.5:1.5

pKa ([1]; Table 17-1)	EE (%) ([3]; Table 17-1)	encapsulation efficiency, rank within the named table (in words) [3]	PDI ([4]; Table 17-1)	Size (nm) ([4]; Table 17-1)	IP-10 (IP-10; Table 4)	SMILES	Total Flux 3 hours ([2]; Table 17-2)	Total Flux 6 hours ([2]; Table 17-2)	Total Flux 24 hours ([2]; Table 17-2)	Total Flux Liver ([5]; Table 17-3, mice)	Total Flux Lung ([5]; Table 17-3, mice)	Total Flux Spleen ([5]; Table 17-3, mice, spleen)	Total Flux 3 hours ([2]; Table 2)	Total Flux 6 hours ([2]; Table 2)	Total Flux Liver ([5]; Table 3, mice)	Total Flux Lung ([5]; Table 3, mice)	Total Flux Spleen ([5]; Table 3, mice, spleen)	other results
6.73	97.3	comparable to that for MC3	0.117	80.2		CCCCC/C=C\C/C=C\CCCCCCCCN(CCO)CCCCCCCCCCCCCCCCCC [Compound 17-6, 2-(((9Z,12Z)—Octadeca-9,12-dien-1-yl)(octadecyl)amino)ethan-1-ol]	6.27E+07	1.19E+08	1.27E+07	2.16E+07	1.54E+05	9.06E+05						IL-6 (IL-6; Table 17-4): 25.0; IP-10 (IP-10; Table 17-4): 134
		highest				CCCCCCCCCCCCN(CCCCCCCCCCCC)CCNCCO [Compound 20-19, 2-((2-(Didodecylamino)ethyl)amino)ethan-1-ol]												pKa [1, 6]: 4.73; Total Flux 3 hours ([2]; Table 20-2): 5.37E+05; Total Flux 6 hours ([2]; Table 20-2): 7.60E+05; Total Flux 24 hours ([2]; Table 20-2): 6.08E+05; EE (%) [3, 6]: 99.5%; PDI [4, 6]: 0.145; Size (nm) [4, 6]: 74.9 nm; Total Flux Liver ([5]; Table 20-3, mice): 3.80E+05; Total Flux Lung ([5]; Table 20-3, mice): 1.96E+04; Total Flux Spleen ([5]; Table 20-3, mice, spleen): 2.74E+04; IP-10 (IP-10; Table 20-4, formula (20-I)): 127.2
						CCCCCCCCCN(CCO)CCN(CCCCCCCCC)CCCCCCCCC [Compound 20-16, 2-((2-(Dinonylamino)ethyl)(nonyl)amino)ethan-1-ol]												pKa [1, 6]: 6.62; Total Flux 3 hours ([2]; Table 20-2): 7.88E+05; Total Flux 6 hours ([2]; Table 20-2): 6.25E+05; Total Flux 24 hours ([2]; Table 20-2): 2.16E+05; total flux after 24 hours, rank within the named table (in words) [2]: lowest; EE (%) [3, 6]: 97.2%; PDI [4, 6]: 0.225; Size (nm) [4, 6]: 73.5 nm; Total Flux Liver ([5]; Table 20-3, mice): 9.55E+04; Total Flux Lung ([5]; Table 20-3, mice): 1.44E+04; Total Flux Spleen ([5]; Table 20-3, mice, spleen): 6.57E+04; total flux in the liver, rank within the named table (in words) ([5]; mice): lowest; IP-10 (IP-10; Table 20-4, formula (20-I)): 395.7
					341	CCCCCCCCCCCCN(CCCCCCCCCCCC)CCN(CCCCCCCCCCCC)CCN1CCN(C(=O)CN(CCCCCCCCCCCC)CCCCCCCCCCCC)CC1 [Compound 3, 2-(Didodecylamino)-1-(4-(2-((2-(didodecylamino)ethyl)(dodecyl)amino)ethyl)piperazin-1-yl)ethan-1-one]							3.75E+08	1.12E+09	1.36E+08	8.47E+05	9.51E+05	EE (%) [3, 7]: 92.5%; IL-6 (IL-6; Table 4): 7; IL-6 induction, rank within the named table (in words) (IL-6): lowest IL-6 expression; PDI [4, 7]: 0.044; Size (nm) ([4]; Table 1, rows without footnote mark (lipid:DOPE:cholesterol:PEG-DMG 40:20:38.5:1.5, Luc mRNA; MC3 standard formulation)): 73.5 nm
					3365	CCCCCCCCCCCCN(CCCCCCCCCCCC)CCN1CCN(C(=O)CN(CCCCCCCCCCCC)CCN(CCCCCCCCCCCC)CCCCCCCCCCCC)CC1 [Compound 2, 2-((2-(Didodecylamino)ethyl)(dodecyl)amino)-1-(4-(2-(didodecylamino)ethyl)piperazin-1-yl)ethan-1-one]							6.01E+09	3.23E+09	3.33E+08	4.76E+05	1.14E+07	pKa [1, 8]: 6.39; Total Flux 24 hours ([2]; Table 2): 3.23E+09; EE (%) [3, 8]: 96%; Size (nm) [4, 9]: 94.7 nm; PDI [4, 8]: 0.108
		highest			198	CCCCCCCCCCCCN(CCCCCCCCCCCC)CCN(CCCCCCCCCCCC)CCN1CCNCC1 [Compound 37, N^1,N^1,N^2-Tridodecyl-N^2-(2-(piperazin-1-yl)ethyl)ethane-1,2-diamine]							1.19E+07	6.66E+06	1.92E+06	6.90E+05	9.75E+05	pKa [1, 8]: 6.45; Total Flux 24 hours ([2]; Table 2): 9.38E+05; total flux after 24 hours, rank within the named table (in words) [2]: lowest flux after 24 hours; EE (%) [3, 8]: 99.9%; Size (nm) [4, 9]: 86.6 nm; PDI [4, 8]: 0.107
6.16	96.9	comparable to that for MC3	0.20	86.4		CCCCCCCC/C=C\CCCCCCCCN(CCO)CCCCCCCC/C=C\CCCCCCCC [Compound 17-8, 2-(Di((Z)-octadec-9-en-1-yl)amino)ethan-1-ol]	1.02E+09	5.94E+08	3.79E+07	2.27E+08	6.11E+05	4.25E+06						total flux / Luc expression, rank within the named table (in words) ([2]; each time point): substantially higher flux than compositions including Compounds 17-2, 17-3, and 17-7; total flux in the liver, rank within the named table (in words) ([5]; mice): somewhat comparable to those including MC3; total flux in the spleen, rank within the named table (in words) ([5]; mice, spleen): highest; IP-10 (IP-10; Table 17-4): 135
6.76	88.7		0.24	87.3		CCCCCCCCCCCCN(CCO)CCCCCCCCCCCC [Compound 17-11, 2-(Didodecylamino)ethan-1-ol]	1.86E+06	2.82E+06	2.70E+05	5.06E+05	1.20E+04	3.37E+05						
